Here are results for one compound from patent US20240009170A1, “INHIBITION OF GLYCOGEN SYNTHASE KINASE-3 (GSK-3)” (Brown University, priority 2020, published 2024).

One data set has as its system CT-26. Kind of data set: Syngeneic murine colon carcinoma BALB/c model with MSS cell line CT-26, survival and response. As to conditions: mouse, in vivo.
Data set [1] relates to human colorectal cell lines (HCT-116, HT-29, KM12C). Kind of data set: Cytokine, chemokine and growth factor profile of tumor cell culture supernatant (Luminex 200). Format: cell-based. As to the method:
(§1) Collection of cell culture supernatants used in cytokine measurements. Cells were plated at 3.5×10^4 cells in a 48-well plate (Thermo Fisher Scientific, Waltham, MA, USA) in complete medium and incubated at 37° C. with 5% CO2. At twenty-four hours after plating, almost all the tumor cells were adherent to the bottom of the flask and the complete medium was replaced with drug-containing medium. Subsequently, the culture supernatants were collected after forty-eight hours of incubation and were frozen at −80° C. until the measurement of cytokines was performed. The day of analysis, samples were thawed and centrifuged to remove cellular debris.
Human cytokine profiling. Human cell line culture supernatants were analyzed using an R&D systems Human Premixed Multi-Analyte Kit (R&D Systems, Inc., Minneapolis, MN, USA) and a Luminex 200 Instrument (LX200-XPON-RUO, Luminex Corporation, Austin, TX, USA) according to the manufacturer's instructions. Sample levels of TNF-α, 4-1BB/TNFRSF9/CD137, IL-8/CXCL8, Ferritin, IFN-β, IL-10, CCL2/JE/MCP-1, VEGF, CXCL13/BLC/BCA-1, IFN-γ, CCL20/MIP-3 α, CCL3/MIP-1 α, CCL22/MDC, CCL4/MIP-1 β, Fas Ligand/TNFSF6, IL-17/IL-17A, IL-2, BAFF/BLyS/TNFSF13B, GM-CSF, CXCLS/ENA-78, TRANCE/TNFSF11/RANK L, CXCL9/MIG, G-CSF, IFN-γ R1/CD119, VEGFR3/Flt-4, C-Reactive Protein/CRP, CXCL11/I-TAC, IL-21, CXCL14/BRAK, IL-6, Fas/TNFRSF6/CD95, TRAIL R3/TNFRSF10C, IL-4, CCL5/RANTES, PD-L1/B7-H1, CCL7/MCP-3/MARC, Chitinase 3-like 1, CXCL10/IP-10/CRG-2, IL-1β/IL-1F2, IL-7, Prolactin, CCL8/MCP-2, TRAIL R2/TNFRSF10B, M-CSF, IL-15, Granzyme B, IFN-α, TREM-1, IL-12/IL-23 p40, TRAIL/TNFSF10, CCL11/Eotaxin, and IL-18/IL-1F4. Sample values are reported in picograms per milliliter (pg/mL).
Cells were treated with 9-ING-41, a selective and potent small molecule inhibitor of GSK-3β, at doses up to 100 μM for seventy-two hours to determine IC10, IC30, IC50, and IC70. Cytokine, chemokine, and growth factor levels were analyzed in the tumor cell culture supernatants after treatment at IC10, IC30, IC50, and IC70 for forty-eight hours using a Luminex 200 multiplexing instrument.

For a further data set, the system named is NK-92 cells. Kind of data set: Cytokine profile of immune cell culture supernatant, NK-92. As to conditions: 1 μM, 48 hours. It is filed as cell-based, Human. As to the method:
as §1
Human cytokine profiling. Human cell line culture supernatants were analyzed using an R&D systems Human Premixed Multi-Analyte Kit (R&D Systems, Inc., Minneapolis, MN, USA) and a Luminex 200 Instrument (LX200-XPON-RUO, Luminex Corporation, Austin, TX, USA) according to the manufacturer's instructions. […]
9-ING-41 increases secreted cytotoxic proteins IFN-v, Granzyme B, and TRAIL in immune cells. […] Here, the inventors determined how 9-ING-41 treatment impacts the immune cell cytokinome. […]

For data set [2] the following is noted: in vivo; cited from earlier work.
The test system of data set [3] is HCT-116 colorectal cancer cells. The experiment in a line: Western blot analysis, HCT-116. It is filed as cell-based, Human. As for the experimental part:
Western blot analysis. Cells were plated in a 6-well plate and incubated overnight before the spent media was replaced with drugged media. Drug treatment lasted for indicated durations. Protein was extracted using radioimmunoprecipitation (RIPA) assay buffer (Cat #R0278, Sigma-Aldrich, St. Louis, MO) containing cOmplete™ Mini, EDTA-free Protease Inhibitor Cocktail (Cat #4693159001, Roche, Basel, Switzerland). Denaturing sample buffer was added, samples were boiled at 95 degrees for 10 minutes. An equal amount of protein lysate was electrophoresed through NuPAGE™ 4 to 12%, Bis-Tris, 1.5 mm, Mini Protein Gels (Invitrogen, Waltham, MA, USA) then transferred to PVDF membranes. The PVDF membrane was blocked with 5% non-fat milk (Sigma-Aldrich, St. Louis, MO, USA) in 1× TTBS. Primary antibodies were incubated with the transferred PVDF membrane in blocking buffer at 4° C. overnight. Secondary antibodies used included goat anti-rabbit IgG (H+L) secondary antibody, HRP (Cat #31460, Invitrogen, Waltham, MA, USA) and goat anti-mouse IgG (H+L) secondary antibody, HRP (Cat #31430, Invitrogen, Waltham, MA, USA). Signal was detected using a Syngene Imaging System.
9-ING-41 treatment decreases survival factor expression while increasing PD-L1 levels in colorectal cancer cell lines. To elucidate the mechanism behind the differential effects of 9-ING-41 on either colorectal cancer or immune cells in co-culture and cytokine profiling assays, the inventors performed Western blot analyses on tumor and immune cells treated with 9-ING-41 over a 72-hour time course.
Treating cells from colorectal cancer cell lines with 1 μM 9-ING-41 decreases Surivin, NF-κB p65, and IκBα while increasing PD-L1 levels in, 9-ING-41 treatment of immune cells increases NIK. Western blot analysis of HCT-116 and HT-29 colorectal cancer cells for expression of indicated proteins after increasing durations of 9-ING-41 treatment (0-72 hours). Western blot analysis of TALL-104 T cells for expression of indicated proteins after increasing durations of 9-ING-41 treatment (0-72 hours). Analysis of Mcl-1 expression in HCT-116 colorectal cancer cells and NK-92 natural killer cells after increasing durations of 9-ING-41 treatment.
Background: In western blotting, separated proteins are transferred to a membrane and probed.

“Also recorded” adds a separate entry of the source.

Procedure for CT-26: In vivo studies. […] Six to seven weeks old male BALB/c mice were purchased from Taconic. […] 100 μL was injected subcutaneously into the rear flanks. Once tumor volume reached at least 100 mm3, mice were randomly assigned to one of four groups (three mice/group): vehicle, ONC212, 2-DG, combination of ONC212 p2-DG. ONC212 was delivered by oral gavage at the dosage of 50 mg/kg in a solution of 70% phosphate-buffered serum, 10% DMSO, and 20% Kolliphor EL (Sigma-Aldrich, catalog no. C5135), three times per week. The treatment continued until mice developed signs of toxicity or discomfort from excessive tumor growth. Mice were weighed once a week to monitor signs of drug toxicity. The length (L) and width (VV) of the masses were measured three times per week with a digital caliper. The tumor volume was calculated applying the formula: 0.5LW2.
To evaluate the potential for 9-ING-41 to increase efficacy of immune checkpoint blockade, the inventors used a syngeneic murine colon carcinoma BALB/c murine model with a microsatellite stable (MSS) cell line CT-26.

In the case of `Cn1cc(C2=C(c3coc4ccc(F)cc34)C(=O)NC2=O)c2cc3c(cc21)OCO3` [9-ING-41], the “survival compared to control group” value with CT-26 is on record as “statistically significant improved survival; also recorded: prolonged the survival”. Also, in data set [1] (colorectal cancer cell lines, regression slope analysis, 48 hours), the “shed PD-L1” value is on record as “decreases”. Further, the overall cytokine levels entry in data set [1] (increasing doses (IC10-IC70), 48 hours) is listed as “decreasing trend”. Moreover, in data set [1] (increasing doses, 48 hours, supernatant), the VEGF result was “most prominently decreased”. The “expression of chemokine CXCL14 (BRAK)” value in data set [1] (increasing doses, supernatant) was “increase”. Moreover, the “macrophage colony-stimulating factor (M-CSF)” value in data set [1] (supernatant) is given as “decrease”. For the same compound, in the data set with NK-92 cells, the “IFN-γ and TRAIL” value was “increases”; the “concentration of secreted granzyme B” value is recorded as “decreases”. Moreover, the blood brain barrier entry in data set [2] was “crosses the blood brain barrier”. In addition, the IKKR entry in data set [3] (1 μM, 0-72 hours) is “No changes”. Also, the “Survivin, NF-κB-inducing kinase (NIK), NF-κB, IKBα, pIKBα, and Bcl-2” value in data set [3] (1 μM, by the 72-hour timepoint) was “decreases”. Further, the cPARP entry in data set [3] (1 μM, until the 48-hour timepoint) is “little to no cPARP”. Also, in data set [3] (as the treatment duration increased), the PD-L1 expression entry is “increases”. In addition, the Mcl-1 protein expression result in data set [3] (by the 24-hour timepoint) is reported as “marked decreases”.
